This is an account of results in PMC8003416, “Modulation of Human Phenylalanine Hydroxylase by 3-Hydroxyquinolin-2(1H)-One Derivatives” (Biomolecules, 2021).

Several values for one entry are separate records, joined by “and”; a condition that tells them apart may be missing. Equal values may be shown once.

Assay [1] concerns the target T1, hPAH transiently expressed in HEK-293T cells (Homo sapiens, UniProt P00439).
T1 construct: expressed in transfected cells; host or cells: HEK-293T (ATCC CRL-11268)
T1 sequence (P00439 1-452): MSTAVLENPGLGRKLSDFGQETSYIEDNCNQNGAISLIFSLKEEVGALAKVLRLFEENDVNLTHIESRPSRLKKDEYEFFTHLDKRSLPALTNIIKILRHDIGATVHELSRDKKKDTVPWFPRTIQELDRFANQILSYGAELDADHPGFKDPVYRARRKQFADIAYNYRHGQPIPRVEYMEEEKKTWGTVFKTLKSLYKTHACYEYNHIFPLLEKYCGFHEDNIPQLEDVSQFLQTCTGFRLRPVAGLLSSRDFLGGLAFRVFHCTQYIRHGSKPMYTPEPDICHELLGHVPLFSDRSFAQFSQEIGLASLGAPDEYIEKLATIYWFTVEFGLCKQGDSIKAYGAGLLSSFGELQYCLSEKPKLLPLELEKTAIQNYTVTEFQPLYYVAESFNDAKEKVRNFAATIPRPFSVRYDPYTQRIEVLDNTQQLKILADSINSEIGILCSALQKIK
The assay can be described thus: hPAH activity and protein level in transfected HEK-293T cells. Type of assay: cell-based. The settings on record: 24 h; for hPAH protein content after translation block / increase in hPAH expression (protein level): 50 μM; for hPAH protein content after translation block: then 10 μg/mL puromycin, 1, 3, 6 h; for increase in hPAH expression (protein level): western blot normalized to GAPDH; for hPAH activity in cell lysate: 50 and 100 μM, vs DMSO. How it is done:
HEK-293T cells (ATCC CRL-11268) were grown in RPMI 1640 medium (Gibco Life Technologies¸ Carlsbad, CA, USA) and supplemented with heat inactivated (60 °C for 30 min) fetal bovine serum (10%; v/v), penicillin (100 U/mL) and streptomycin (0.1 mg/mL) at 37 °C, in 5% CO2 in a humidified atmosphere. 1 × 10^5 cells were transfected with 750 ng of DNA (eukaryotic vector expressing hPAH; pEF-DEST51-PAH-WT) using lipofectamine (Invitrogen) as the transfection agent. Compounds (50 and 100 μM) or DMSO (0.5 and 1%) were added 4 h after transfection, and cells were further incubated for 24 h. For sample collection cells were trypsinized with 500 μL of TripLE Express (Gibco Life Technologies), centrifuged at 200× g for 5 min, at 4 °C, and washed with PBS. The pellet was resuspended in 50 μL of PBS with 200 μM PMSF and cells were disrupted by passage (≈20×) through a fine needle. The cell debris were removed by centrifugation at 14,000× g for 5 min at 4 °C and the obtained cell lysates were used for enzymatic activity assays and western blot analysis. Three independent cell cultures were performed.
For the stability assays, after 24 h incubation with compounds, protein translation was stopped by the addition of 10 μg/mL puromycin (Sigma-Aldrich). Cells were collected at 0, 1, 3, and 6 h after blockage of translation. Two independent cell cultures were performed.
The hPAH activity of cell lysates was measured essentially as described in [26] in a final volume of 200 μL containing 1 mM L-Phe, 250 mM Na-Hepes, pH 7, 0.1 mg/mL catalase and 20 μL of cell lysate. After 4 min of pre-incubation, 100 μM (NH4)2Fe(II)SO4 was added to the mixture. Two min after ferrous ammonium sulphate addition, the reaction was initiated by the injection of BH4 (75 μM). Tyrosine production was assessed by measuring the increase in fluorescence intensity (λexc 274 nm and λem 304 nm) in a FLUOstar Omega microplate reader (BMG Labtech), at 25 °C, during 30 min. Enzyme activity was determined as the amount of L-Tyr produced per min per mg of total protein. For each cell culture enzymatic assays were performed in triplicate.
For western blot analysis of cell lysates, 4 μg of total protein were applied on an 8 to 16% mini-protean TGX precast polyacrylamide gel (Bio-Rad), and the proteins were transferred to a polyvinylidene fluoride (PVDF; GE Healthcare) membrane and visualized by immunodetection using mouse anti-PAH (MAB 5278; Millipore; Burlington, MA, USA) and mouse anti-glyceraldehyde 3-phosphate dehydrogenase (GAPDH (loading control); sc-365062, Santa Cruz Biotechnology; Dallas, TX, USA) as the primary antibodies and the anti-mouse IgG-HRP (W402B, Promega; Madison, WI, USA) as the secondary antibody. Immunoblots were developed with enhanced chemiluminescent agents (ECL Prime; GE Healthcare) and the images were acquired in a charge-coupled device imager ChemiDoc XRS (Bio-Rad) using the Quantity One software (Bio-Rad).

Assay [2] addresses T2, human phenylalanine hydroxylase (hPAH) (Homo sapiens, UniProt P00439).
T2 construct: Recombinant full-length wild-type (WT) hPAH was expressed in E. coli Top10 cells in fusion with a hexa-histidyl peptide; made in house; host or cells: E. coli Top10
T2 sequence (P00439 1-452): T1 sequence (P00439 1-452)
On the set-up: method as in PMID 12379147, PMID 15060071. The settings on record: ref [24],[25]; read-out: KD of L-Phe, previously reported SPR values; cited from earlier work.

On to `COC(=O)CC[C@H](NC(=O)c1c(O)c(=O)[nH]c2ccc(OC(F)(F)F)cc12)C(=O)OC` [Compound 9], for which, in assay [1], the “hPAH protein content after translation block” value is reported as “hPAH protein content is maintained as a function of time”, the “increase in hPAH expression (protein level)” value is given as 1.8 fold and the “hPAH activity in cell lysate” value was “higher activity”.

On to `COC(=O)CNC(=O)c1c(O)c(=O)[nH]c2ccc(OC(F)(F)F)cc12` [Compound 11], for which, in assay [1], the “hPAH protein content after translation block” value was “hPAH protein content is maintained as a function of time”, the “increase in hPAH expression (protein level)” value is given as “did not affect the hPAH protein levels” and the “hPAH activity in cell lysate” value is “higher activity”.

Take `N[C@@H](Cc1ccccc1)C(=O)O` [L-Phe, L-phenylalanine, reference compound]: in assay [2], the Kd was 97 µM and 136 µM.
